The test system of one assay is C4-2 cells. Briefly: Cell viability assay (CellTiter-Glo, inhibition of proliferation, Bliss synergy). Format: cell-based, human. The conditions noted are these: for activity when combined with PSMA ADC: C4-2 cells (FIG. 8). As to the method: (§1) Cells were plated at a density of 1×10^3 cells in 25 μL in 384-well white-colored microplates (Perkin Elmer) and cultured overnight. The next day, cells were treated with 1 or 2 drugs in a total volume of 50 μL. Cultures were incubated at 37° C. for 7 days. Viability was assessed on days 0 and 7 using CellTiter-Glo (Promega) and an Analyst GT luminescence reader at 560 nm emission (Molecular Devices). The percent inhibition of proliferation was calculated as (Vu−Vt)/(Vu−V0)×100, where Vu, Vt and V0 represent the viability values for untreated cells on day 7, treated cells on day 7, and cells prior to treatment on day 0, respectively. […] Values of >100% reflect cytotoxic compounds or combinations, where Vt<V0.
(§2) Drug combinations were tested in 3 to 7 independent repeat cell viability assays unless otherwise indicated Inhibition data were fit to a four-parameter logistic equation using GraphPad Prism. […] Bliss differences were calculated by subtracting the predicted value (Fc) from the experimentally observed inhibition. Mean Bliss differences were calculated for each point in a matrix of drug-drug combinations, converted to percentages, and assessed for statistical significance from the null value of zero using two-sided t-tests with a significance level of 0.05. Statistical evaluations were not performed in cases where the fractional growth inhibition exceeded unity, since such values fall outside the Bliss framework. In addition, Bliss differences of less than 5% were considered to be of limited biological relevance and were excluded from synergy considerations.
For orientation: In ATP-based viability assays light output follows the ATP content of the culture.

For the next assay, the system named is LNCaP cells. Described as above. The format is cell-based, human. The conditions noted are these: for activity when combined with PSMA ADC: LNCaP cells (FIG. 8). As to the method:
as §1, §2

For assay [1], the system named is metastatic, castration-resistant prostate cancer (mCRPC). The conditions noted are these: subjects with mCRPC; cited from earlier work.
The test system of assay [2] is PSMA expression on C4-2 cells. Nature of the assay: Flow cytometry of cell-surface PSMA expression. Format: cell-based, human. Also noted: cell-surface PSMA expression / PSMA expression on treated cells relative to untreated cells: dose or concentration left out as unconfirmed. The following applies: for cell-surface PSMA expression: 7 days post-treatment. As to the method:
(§3) For short-term treatments (≦7 days), cells were plated on 24-well plates (BD Falcon) overnight, at a density of 200,000 cells per 500 μL. The next day, wells were exchanged with 500 μL of fresh media that included inhibitor, and incubated at 37° C. until the indicated time point. For the long-term treatments (>7 days), cells were plated on T-25 flasks (BD Falcon) overnight, at a density of 500,000 cells per flask in 5 mL of media. 5 mL of fresh media with or without treatment was exchanged the next day. On weekly splits thereafter, cells were detached with Cell Dissociation solution (Sigma), washed with fresh media, counted using Vi-CELL XR (Beckman Coulter), and split into two T-25 flasks for continued culture with or without inhibitor. Prior to analysis, cells were detached, counted and suspended in PBS (PBS(−), without Ca/Mg, Life Technologies) containing 0.3% bovine serum albumin (BSA, Sigma) and 0.1% sodium azide (VWR). Cells (100,000 in 100 μL) were placed in round-bottom 96-well plates (Falcon) and incubated for 30 minutes at room temperature with 1 μg/mL of anti-PSMA mAb 3.9 conjugated to phycoerythrin (PE). Cells then were washed twice with 200 μL PBS/BSA/azide buffer and read using a FACSCalibur instrument (BD Biosciences). A mouse IgG2b-PE conjugate of irrelevant specificity (Abcam) was included as an isotype control.
(A flow cytometer gives signals particle by particle.)

The test system of a further assay is PSMA in C4-2 cells. Briefly: Western blotting of total PSMA. Format: cell-based, human. The conditions noted are these: 7 days. As to the method:
(§4) Cells (300,000) were incubated overnight in 6-well plates (BD Falcon) in 4 mL of 10% FBS RPMI1640 media prior to addition of inhibitors. Plates were incubated at 37° C. for an additional 7 days, washed once with 5 mL of cold PBS(−) and placed on ice. Cells were lysed with 130 μL of RIPA Lysis Buffer (Santa Cruz Biotechnology) and then centrifuged at 14,000×g for 10 minutes at 4° C. The supernatant was quantitated for protein concentration using a BCA kit (Pierce/Thermo), resolved under reducing conditions using NuPAGE Novex 4-12% Bis-Tris gels (Life Technologies), and transferred to nitrocellulose using the iBlot 7-Minute Blotting System (Life Technologies). Membranes were blocked using Odyssey Blocking Reagent (LI-COR Biosciences), incubated with primary and secondary antibodies, and visualized using an Odyssey infrared imager (LI-COR Biosciences).
Background: Immunoblotting shows a protein as a band on a membrane.

The subject of the next assay is PSMA in LNCaP cells. Nature of the assay: Western blotting of total PSMA. The conditions noted are these: 7 days, serial dilution of lysates. The format is cell-based, human. As to the method:
as §4

Assay [3] concerns PSMA expression on LNCaP cells. Nature of the assay: Flow cytometry of cell-surface PSMA expression. The format is cell-based, human. The conditions noted are these: antiandrogens concentrations above 1 mM, 7 days post-treatment. As to the method: as §3

Structures are written as SMILES. Square brackets hold non-standard residues; d marks the D form. Peptide text beside a SMILES is read from it. * marks the point of attachment. Dolaproine = CO[C@@H]([C@@H]1CCCN1)[C@@H](C)C(=O)O; Dil = CC[C@H](C)[C@H](NC)[C@@H](CC(=O)O)OC; X1 = C[C@@H](N*)[C@@H](O)c1ccccc1; NMeV = CN[C@H](C(=O)O)C(C)C

For orientation: IC50 means the concentration that inhibits the measured activity by half. Regarding `CC[C@H](C)[C@@H]([C@@H](CC(=O)N1CCC[C@H]1[C@H](OC)[C@@H](C)C(=O)N[C@H](C)[C@@H](O)c1ccccc1)OC)N(C)C(=O)[C@@H](NC(=O)[C@@H](NC)C(C)C)C(C)C` [MMAE, monomethylauristatin norephedrine] (H-[NMeV]V[Dil][Dolaproine]-X1), the “activity when paired with enzalutamide or abiraterone” value is recorded as “additive to weakly synergistic activity” in the assay on C4-2 cells (C4-2 cells) and “additive activity” with LNCaP cells (LNCaP cells). Besides, the IC50 was ~0.5 nM with C4-2 cells (C4-2 cells, single agent, 7 days) and ~0.5 nM in the assay with LNCaP cells (LNCaP cells, single agent, 7 days).

Turning to `CNC(=O)c1ccc(N2C(=S)N(c3cnc(C#N)c(C(F)(F)F)c3)C(=O)C23CCC3)cc1F` [ARN-509], the “effect on the activity of PSMA ADC” value in the assay on C4-2 cells (C4-2 cells) is “enhanced the activity of PSMA ADC”. For the same compound, the single-agent antiproliferative effect entry is on record as “minimal antiproliferative effects” in the assay on C4-2 cells (C4-2 cells, single agent) and “inhibited proliferation” in the assay with LNCaP cells (LNCaP cells, single agent).

Take `NC1(c2ccc(-c3nc4ccn5c(=O)[nH]nc5c4cc3-c3ccccc3)cc2)CCC1` [MK-2206]: the “activity when combined with PSMA ADC” value in the assay with C4-2 cells and in the assay on LNCaP cells was “additive to weakly synergistic activity” throughout.

For the compound `CS(=O)(=O)N1CCN(Cc2cc3nc(-c4cccc5[nH]ncc45)nc(N4CCOCC4)c3s2)CC1` [GDC-0941, 2-(1H-indazol-4-yl)-6-(4-methanesulfonyl-piperazin-1-ylmethyl)-4-morpholin-4-yl-t hieno[3,2-d]pyrimidine], the “activity when combined with PSMA ADC” value with C4-2 cells and in the assay on LNCaP cells was “additive to weakly synergistic activity” each time.

As to `CO[C@H]1C(=O)[C@]2(C)[C@@H](OC)C[C@H]3OC[C@@]3(OC(C)=O)[C@H]2[C@H](OC(=O)c2ccccc2)[C@]2(O)C[C@H](OC(=O)[C@H](O)[C@@H](NC(=O)OC(C)(C)C)c3ccccc3)C(C)=C1C2(C)C` [Jevtana, cabazitaxel], in assay [1], the survival benefit was 2.4 month.

`CO[C@H]1C[C@@H]2CC[C@@H](C)[C@@](O)(O2)C(=O)C(=O)N2CCCC[C@H]2C(=O)O[C@H]([C@H](C)C[C@@H]2CC[C@@H](O)[C@H](OC)C2)CC(=O)[C@H](C)/C=C(\C)[C@@H](O)[C@@H](OC)C(=O)[C@H](C)C[C@H](C)/C=C/C=C/C=C/1C` [Rapamycin, rapamycin]: the “increase in PSMA expression” value in assay [2] (C4-2, low nanomolar concentrations, 7 days) is on record as > 2 fold.

For `Cc1ccc(C(=O)N(CCCN)[C@@H](c2oc3cc(Cl)ccc3c(=O)c2Cc2ccccc2)C(C)C)cc1` [SB-743921], the “activity when combined with PSMA ADC” value in the assay with C4-2 cells and in the assay with LNCaP cells was “additive to weakly synergistic activity” each time.

Turning to `C[C@]12C=CC(=O)C=C1CC[C@@H]1[C@@H]2C(=O)C[C@@]2(C)[C@H]1CC[C@]2(O)C(=O)CO` [Prednisone, prednisone], the “activity when combined with PSMA ADC” value with C4-2 cells and with LNCaP cells was “additive to weakly synergistic activity” throughout.

For the compound `CNC(=O)c1ccc(N2C(=S)N(c3ccc(C#N)c(C(F)(F)F)c3)C(=O)C2(C)C)cc1F` [Enzalutamide, enzalutamide], in the assay on C4-2 cells (C4-2 cells), the “effect on the activity of PSMA ADC” value is listed as “significantly enhanced the activity of PSMA ADC”. Besides, the single-agent antiproliferative effect entry with C4-2 cells (C4-2 cells, single agent) was “minimal antiproliferative effects”; with LNCaP cells (LNCaP cells, single agent), “inhibited proliferation”. In the assay with PSMA in C4-2 cells, the “PSMA upregulation (Western)” value was “upregulated PSMA to similar extents”. Besides, the “magnitude of increase in PSMA (Western, semi-quantitative)” value in the assay with PSMA in LNCaP cells is recorded as “approximately 5 fold”. Moreover, the “cell-surface PSMA expression” value in assay [2] (C4-2) is “approximately doubled”; in assay [2] (C4-2, listed as enzalutamide) it was “doubled”; in assay [3], “approximately doubled”. The “time for PSMA expression to return to baseline in the absence of drug” value in assay [2] (C4-2, after 3 weeks culture in enzalutamide) is on record as ≤ 7 days. For the same compound, the “PSMA expression on treated cells relative to untreated cells” value in assay [2] (C4-2, after 21 days) turned out to be 4 fold. Further, the “exposure time to maximal PSMA expression” value in assay [2] (FIG. 15, cell line not stated in legend) is given as 3 to 4 weeks.

Regarding `C[C@]12CC[C@H](O)CC1=CC[C@@H]1[C@@H]2CC[C@]2(C)C(n3cnc4ccccc43)=CC[C@@H]12` [TOK-001, galeterone], the “effect on the activity of PSMA ADC” value in the assay with C4-2 cells (C4-2 cells) is “enhanced the activity of PSMA ADC”. The single-agent antiproliferative effect result is given as “minimal antiproliferative effects” in the assay with C4-2 cells (C4-2 cells, single agent) and “inhibited proliferation” with LNCaP cells (LNCaP cells, single agent).

Source of the values: patent US20150110814A1, “COMBINATION THERAPIES WITH PSMA LIGAND CONJUGATES” (PSMA Development Company, LLC, priority 2013, published 2015).
